As usually defined, the IC50 is the concentration at which inhibition is half-maximal.

Series [1] in a line: GSH human, in vitro adduct formation. Conditions: in vitro adduct formation relative to control. More on the design: key: NF = in vitro no significant adduct formation relative to control. The class given is in vitro ADME.
Series [2] addresses T1, recombinant human cathepsin E (Homo sapiens, UniProt P14091).
T1 construct: purchased R&D Systems
T1 sequence (P14091 54-396): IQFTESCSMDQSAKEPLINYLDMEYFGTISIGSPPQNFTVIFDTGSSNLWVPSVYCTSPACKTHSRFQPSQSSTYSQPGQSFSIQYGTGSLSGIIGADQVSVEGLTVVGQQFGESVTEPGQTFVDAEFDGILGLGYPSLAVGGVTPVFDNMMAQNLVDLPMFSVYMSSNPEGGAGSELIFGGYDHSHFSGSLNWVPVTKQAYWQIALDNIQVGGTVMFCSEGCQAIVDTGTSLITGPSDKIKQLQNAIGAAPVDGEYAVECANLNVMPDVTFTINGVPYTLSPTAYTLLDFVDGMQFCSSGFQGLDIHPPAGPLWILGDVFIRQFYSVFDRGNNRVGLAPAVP
Briefly: Cathepsin E fluorescent substrate kinetic assay. Conditions: pH 4.5, substrate MR121-CKLVFFAEDW
It counts as biochemical. From the text:
(§1) Cathepsin D and Cathepsin E Fluorescent Substrate Kinetic Assays
(§2) The MR121 fluorescence assays described below are based on the fact that MR121 forms a non-fluorescent ground state complex with tryptophan. In solution this formation occurs at millimolar concentrations of tryptophan. The mechanism can be used to design a generic biochemical assay for proteases. A substrate peptide is labeled at the N-terminus with tryptophan and at the C-terminus with the fluorophore MR121 (for cathepsin D the 10 amino acid peptide WTSVLMAAPC-MR121 was used; for cathepsin E, MR121-CKLVFFAEDW was used). In absence of protease activity, the substrates remain intact and the MR121 fluorescence is reduced by the high local Trp-concentration. If the substrates are cleaved by the enzymes the MR121 fluorescence is recovered.
(§3) The fluorescent substrate cathepsin D and cathepsin E kinetic assays were performed at room temperature in 384-well microtiter plates (black with clear flat bottom, non-binding surface plates from Corning) in a final volume of 51 μl. The test compounds were serially diluted in DMSO (15 concentrations, ⅓ dilution steps) and 1 μl of diluted compounds were mixed for 10 min with 40 μl of cathepsin D (from human liver, Calbiochem) diluted in assay buffer (100 mM sodium acetate, 0.05% BSA, pH 5.5; final concentration:200 nM) or with 40 μl of recombinant human cathepsin E (R&D Systems) diluted in assay buffer (100 mM sodium acetate, 0.05% BSA, pH 4.5; final concentration:0.01 nM). After addition of 10 μl of the cathepsin D substrate WTSVLMAAPC-MR121 diluted in cathepsin D assay buffer (final concentration:300 nM) or 10 μl of the cathepsin E substrate MR121-CKLVFFAEDW diluted in cathepsin E assay buffer (final concentration:300 nM), the plates were strongly shaken for 2 minutes. The enzymatic reaction was followed in a plate: vision reader (Perkin Elmer) (excitation wavelength:630 nm; emission:695 nm) for at least 30 minutes in a kinetic measurement detecting an increase of MR121 fluorescence during the reaction time. The slope in the linear range of the kinetic was calculated and the IC50 of the test compounds were determined using a four parameter equation for curve fitting.

Series [3] has as its target T2, cathepsin D (from human liver) (Homo sapiens, UniProt P07339).
T2 construct: cathepsin D (from human liver, Calbiochem) diluted in assay buffer; purchased Calbiochem; host or cells: human liver
Nature of the series: Cathepsin D fluorescent substrate kinetic assay. The class given is biochemical. As to conditions: pH 5.5, substrate WTSVLMAAPC-MR121.
Text: as §1, §2, §3

For the next series, the target named is T3, CYP2C9 (Homo sapiens, UniProt P11712).
T3 construct: 0.2 mg/ml pooled human liver microsomes; from tissue; host or cells: pooled human liver microsomes
T3 sequence (P11712 whole entry): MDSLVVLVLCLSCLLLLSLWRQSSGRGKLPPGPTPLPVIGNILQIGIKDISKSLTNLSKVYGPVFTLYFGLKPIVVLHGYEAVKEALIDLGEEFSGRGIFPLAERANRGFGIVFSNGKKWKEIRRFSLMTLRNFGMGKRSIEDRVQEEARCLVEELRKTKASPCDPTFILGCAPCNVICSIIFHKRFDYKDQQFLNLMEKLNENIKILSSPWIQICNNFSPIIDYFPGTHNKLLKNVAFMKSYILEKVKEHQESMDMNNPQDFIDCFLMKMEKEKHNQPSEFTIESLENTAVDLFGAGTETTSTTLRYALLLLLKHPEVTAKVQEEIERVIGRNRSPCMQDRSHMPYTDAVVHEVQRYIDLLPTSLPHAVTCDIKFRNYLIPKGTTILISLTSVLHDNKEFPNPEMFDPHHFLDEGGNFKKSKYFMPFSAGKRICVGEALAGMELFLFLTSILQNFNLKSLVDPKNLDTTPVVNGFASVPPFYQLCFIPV
Nature of the series: CYP inhibition assay, human liver microsomes. It counts as in vitro ADME. Conditions: human liver microsomes, substrate diclofenac; read-out: CYP IC50 2C9. The procedure: (§4) Inhibition of cytochromes P450 (CYPs) 2C9, 2D6 and 3A4 was assessed using human liver microsomes and CYP-selective substrate metabolism reactions. 50 μl incubations were made up containing (finally) 0.2 mg/ml pooled human liver microsomes, 5 μM substrate (diclofenac for CYP2C9 [4′hydroxylase], dextromethorphan for CYP2D6 [O-demethylase] or midazolam for CYP3A4 [1′hydroxylase]), 0.25 μL DMSO containing test inhibitor and NADPH regenerating system. Test inhibitor concentrations of 50, 16.7, 5.6, 1.9, 0.6 and 0.2 μM were assessed in singlicate. Incubations were prewarmed to 37° C. for 10 minutes before initiation by addition of NADPH regenerating system. Incubations were quenched after 5 minutes (20 minutes for dextromethorphan) by addition of 50 μl cold acetonitrile containing 20 ng/ml 4-OH-diclofenac-13C6, 20 ng/mL dextrorphan-D3 and 20 ng/mL 1-OH-midazolam-D4. Quenched incubates were stored at −20° C. for at least 1 hour before centrifugation (20,000× g, 20 minutes). Supernatants were removed and diluted 1:1 with water prior to analysis using a RapidFire sample injector system and API4000 mass spectrometer. Peak areas for substrate, metabolite and stable-labelled metabolite standard were determined using MS/MS. The peak area ratios between the metabolite generated by the enzymatic reaction and the internal standard were used in subsequent calculations. The percentage of (DMSO) control activity was calculated for each incubate and IC50 values estimated by non-linear regression. Sulfaphenazole, quinidine or ketoconazole were tested in each CYP2C9, CYP2D6 or CYP3A4 inhibition experiment, respectively, to ensure assay sensitivity and reproducibility. (Validated assays for human cytochrome P450 activities, R. L. Walsky and R. S. Obach, Drug Metabolism and Disposition 32: 647-660, 2004. and S. Fowler and H. Zhang, The AAPS Journal, Vol. 10, No. 2, 410-424, 2008)
In general terms: Liver microsomes are vesicles of endoplasmic reticulum, rich in cytochrome P450 enzymes.

For another series, the target named is T4, CYP2D6 (Homo sapiens, UniProt P10635).
T4 construct: 0.2 mg/ml pooled human liver microsomes; from tissue; host or cells: pooled human liver microsomes
T4 sequence (P10635 whole entry): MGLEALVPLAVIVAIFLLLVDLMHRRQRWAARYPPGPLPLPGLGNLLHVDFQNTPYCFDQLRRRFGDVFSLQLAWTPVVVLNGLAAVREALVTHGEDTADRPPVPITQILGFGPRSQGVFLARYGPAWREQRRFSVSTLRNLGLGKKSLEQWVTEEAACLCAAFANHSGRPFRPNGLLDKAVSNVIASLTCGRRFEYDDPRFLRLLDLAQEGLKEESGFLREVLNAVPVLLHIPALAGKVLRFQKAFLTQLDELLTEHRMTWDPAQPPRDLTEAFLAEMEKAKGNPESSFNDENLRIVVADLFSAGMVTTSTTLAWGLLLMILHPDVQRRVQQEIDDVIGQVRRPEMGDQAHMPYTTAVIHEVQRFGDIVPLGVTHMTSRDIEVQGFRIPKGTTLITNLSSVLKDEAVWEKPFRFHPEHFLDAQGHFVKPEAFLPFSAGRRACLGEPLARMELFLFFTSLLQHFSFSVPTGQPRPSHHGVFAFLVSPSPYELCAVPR
Nature of the series: CYP inhibition assay, human liver microsomes. It counts as in vitro ADME. Conditions: human liver microsomes, substrate dextromethorphan; read-out: CYP IC50 2D6. Here is the method:
as §4

A further series has as its target T5, CYP3A4 (Homo sapiens, UniProt P08684).
T5 construct: 0.2 mg/ml pooled human liver microsomes; from tissue; host or cells: pooled human liver microsomes
Briefly: CYP inhibition assay, human liver microsomes. It counts as in vitro ADME. Conditions: human liver microsomes, substrate midazolam; read-out: CYP IC50 3A4. Here is the method: as §4

T2 sequence (P07339 65-162 limits assumed): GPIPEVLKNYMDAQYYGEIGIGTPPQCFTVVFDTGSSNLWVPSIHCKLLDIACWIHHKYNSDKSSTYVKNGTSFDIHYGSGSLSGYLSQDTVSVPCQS
T2 sequence (P07339 169-412 limits assumed): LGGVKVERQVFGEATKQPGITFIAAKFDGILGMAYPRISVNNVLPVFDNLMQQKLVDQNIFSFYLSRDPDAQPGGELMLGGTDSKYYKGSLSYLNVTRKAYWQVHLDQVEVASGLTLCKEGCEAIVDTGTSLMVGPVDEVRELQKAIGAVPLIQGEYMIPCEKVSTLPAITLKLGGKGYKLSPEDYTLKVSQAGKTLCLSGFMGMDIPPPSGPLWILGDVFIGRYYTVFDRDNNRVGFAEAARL
T5 sequence (P08684 whole entry): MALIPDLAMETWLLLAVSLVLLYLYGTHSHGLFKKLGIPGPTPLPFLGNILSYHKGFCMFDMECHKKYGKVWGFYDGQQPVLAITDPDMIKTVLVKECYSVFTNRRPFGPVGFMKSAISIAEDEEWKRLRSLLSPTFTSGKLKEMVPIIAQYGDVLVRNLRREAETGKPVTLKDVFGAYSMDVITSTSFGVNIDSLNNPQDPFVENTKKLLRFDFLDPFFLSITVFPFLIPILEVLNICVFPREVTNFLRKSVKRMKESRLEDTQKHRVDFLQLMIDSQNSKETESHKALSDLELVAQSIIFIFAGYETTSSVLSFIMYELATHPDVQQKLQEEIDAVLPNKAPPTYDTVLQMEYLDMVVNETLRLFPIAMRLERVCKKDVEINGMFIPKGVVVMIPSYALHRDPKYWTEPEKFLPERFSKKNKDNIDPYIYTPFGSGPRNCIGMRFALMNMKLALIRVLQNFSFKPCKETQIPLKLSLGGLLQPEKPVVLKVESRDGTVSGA

As to `CN=[S@@]1(=O)C[C@@](C)(c2cc(-c3cc(-c4cnc(OC)cn4)no3)ccc2F)N=C(N)C1(C)C` [Example 7, (1R,3R)-5-amino-3-(2-fluoro-5-(3-(5-methoxypyrazin-2-yl)isoxazol-5-yl)phenyl)-3,6,6-trimethyl-1-(methylimino)-3,6-dihydro-2H-1,4-thiazine 1-oxide 2,2,2-trifluoroacetate], in series [1], the GSH human entry is “NF”. For the same compound, the IC50 in series [2] is 182 µM; in series [3], 37 µM; at CYP2C9, > 10 µM; at CYP2D6, > 10 µM; on CYP3A4, > 10 µM.
Take `CN=[S@@]1(=O)C[C@@](C)(c2cc(-c3cc(-c4ncc(Cl)cn4)no3)ccc2F)N=C(N)C1(C)C` [Example 6, (1R,3R)-5-amino-3-(5-(3-(5-chloropyrimidin-2-yl)isoxazol-5-yl)-2-fluorophenyl)-3,6,6-trimethyl-1-(methylimino)-3,6-dihydro-2H-1,4-thiazine 1-oxide 2,2,2-trifluoroacetate]: the GSH human entry in series [1] is reported as “NF”. Moreover, the half-inhibitory concentration (IC50) was 79 µM in series [2]; 38 µM in series [3]; > 10 µM at CYP2C9; > 10 µM on CYP2D6; > 10 µM on CYP3A4.
Regarding `[2H]C([2H])([2H])N=[S@@]1(=O)C[C@@](C)(c2cc(-c3cc(-c4cnc(OC)cn4)no3)ccc2F)N=C(N)C1(C)C` [Example 24, (1R,3R)-3-[2-fluoro-5-[3-(5-methoxypyrazin-2-yl)isoxazol-5-yl]phenyl]-3,6,6-rimethyl-1-oxo-1-(trideuteriomethylimino)-2H-1,4-thiazin-5-amine 2,2,2-trifluoroacetate], the 50% inhibitory concentration (IC50) in series [2] is 167 µM; in series [3], 39 µM; on CYP2C9, > 10 µM; at CYP2D6, > 10 µM; at CYP3A4, > 10 µM.
As to `CN=[S@@]1(=O)C[C@@](C)(c2cc(-c3cc(-c4cnc(OCC(F)F)cn4)no3)ccc2F)N=C(N)C1(C)C` [Example 5, (1R,3R)-5-amino-3-(5-(3-(5-(2,2-difluoroethoxy)pyrazin-2-yl)isoxazol-5-yl)-2-fluorophenyl)-3,6,6-trimethyl-1-(methylimino)-3,6-dihydro-2H-1,4-thiazine 1-oxide 2,2,2-trifluoroacetate], the GSH human entry in series [1] is recorded as “NF”. Also, the IC50 was 78 µM in series [2], 29 µM in series [3], > 10 µM on CYP2C9 and > 10 µM on CYP3A4.

Source of the values: patent US10047081B2, “BACE1 inhibitors” (Hoffmann-La Roche Inc., priority 2015, dated 2018).
